Format in all cases: biochemical
One experiment deals with adenosine A2B receptor (Homo sapiens (Human), UniProt P29275). As to the kind of experiment: Adenosine receptor activity assay (Table 1), A2B activity. The note with it: for Ratio: A2A activity to the A2B activity, A2A/A2B; for IC50: read-out: Ave A2B cAMP IC50.
In another experiment the target is adenosine A3 receptor (Homo sapiens (Human), UniProt P0DMS8). Kind of experiment: Adenosine receptor activity assay (Table 1), A3 cAMP. The procedure:
(§1) Table 1. Compounds (e.g., Adenosine Receptor modulators) and activity assay results. The legend is as follows: A=<10 nM; B=10-50 nM; C=50-100 nM; D=100-500; and E=>500 nM. The ratio corresponds to the A2A activity to the A2B activity; or A2A/A2B.

Another experiment has as its target adenosine A2A receptor (Homo sapiens (Human), UniProt P29274). As to the kind of experiment: Adenosine receptor activity assay (Table 1), A2A activity. The note with it: read-out: Ave A2A cAMP IC50.
A further experiment addresses adenosine A1 receptor (Homo sapiens (Human), UniProt P30542). As to the kind of experiment: Adenosine receptor activity assay (Table 1), A1 cAMP. The procedure:
as §1

Among the data in patent publication US11254686B1 (Corvus Pharmaceuticals, Inc., priority 2017, dated 2022) are Ratio and IC50 values, retold here.

adenosine A2B receptor, sequence (P29275 whole entry): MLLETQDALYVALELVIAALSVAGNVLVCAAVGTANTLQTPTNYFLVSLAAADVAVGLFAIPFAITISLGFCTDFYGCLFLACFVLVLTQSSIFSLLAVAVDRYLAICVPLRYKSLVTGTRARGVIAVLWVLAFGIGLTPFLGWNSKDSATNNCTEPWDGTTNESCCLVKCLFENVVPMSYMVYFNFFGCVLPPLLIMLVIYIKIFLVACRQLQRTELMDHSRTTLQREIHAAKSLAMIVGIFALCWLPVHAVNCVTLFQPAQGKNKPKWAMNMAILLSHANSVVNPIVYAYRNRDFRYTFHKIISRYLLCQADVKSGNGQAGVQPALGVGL
adenosine A3 receptor, sequence (P0DMS8 whole entry): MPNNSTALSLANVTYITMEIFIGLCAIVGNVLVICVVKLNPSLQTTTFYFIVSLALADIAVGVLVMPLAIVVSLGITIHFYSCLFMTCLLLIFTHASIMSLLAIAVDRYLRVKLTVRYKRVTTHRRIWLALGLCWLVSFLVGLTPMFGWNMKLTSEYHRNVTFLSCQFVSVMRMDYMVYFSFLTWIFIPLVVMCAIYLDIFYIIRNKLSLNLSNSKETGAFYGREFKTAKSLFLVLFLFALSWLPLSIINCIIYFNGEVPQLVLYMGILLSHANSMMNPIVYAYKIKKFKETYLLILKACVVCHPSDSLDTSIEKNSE
adenosine A1 receptor, sequence (P30542 whole entry): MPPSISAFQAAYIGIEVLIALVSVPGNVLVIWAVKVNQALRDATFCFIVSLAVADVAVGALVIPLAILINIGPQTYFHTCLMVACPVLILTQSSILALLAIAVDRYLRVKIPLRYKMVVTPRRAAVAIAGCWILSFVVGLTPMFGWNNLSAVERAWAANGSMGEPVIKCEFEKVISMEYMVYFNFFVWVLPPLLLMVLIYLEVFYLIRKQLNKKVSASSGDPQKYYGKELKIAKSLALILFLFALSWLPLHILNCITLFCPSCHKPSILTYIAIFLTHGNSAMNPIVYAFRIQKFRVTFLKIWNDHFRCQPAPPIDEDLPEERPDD
adenosine A2A receptor, sequence (P29274 whole entry): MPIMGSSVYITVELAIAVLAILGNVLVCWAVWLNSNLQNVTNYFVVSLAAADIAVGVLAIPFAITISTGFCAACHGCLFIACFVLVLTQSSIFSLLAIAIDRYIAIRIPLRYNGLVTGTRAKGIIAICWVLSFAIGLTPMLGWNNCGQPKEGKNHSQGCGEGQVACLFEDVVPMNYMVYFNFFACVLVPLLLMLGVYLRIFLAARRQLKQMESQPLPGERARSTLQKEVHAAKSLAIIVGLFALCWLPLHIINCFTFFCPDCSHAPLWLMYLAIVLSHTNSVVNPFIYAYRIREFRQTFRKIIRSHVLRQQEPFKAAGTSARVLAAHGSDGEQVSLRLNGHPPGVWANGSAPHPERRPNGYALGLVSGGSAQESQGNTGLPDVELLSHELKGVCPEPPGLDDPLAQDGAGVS

For `C[C@H](Nc1nc(C(=O)N2CC(CNS(C)(=O)=O)C2)c2sccc2n1)c1cncc(F)c1` [Example Z531, (S)—N-((1-(2-((1-(5-Fluoropyridin-3-yl)ethyl)amino)thieno[3,2-d]pyrimidine-4-carbonyl)azetidin-3-yl)methyl)methanesulfonamide], the Ratio at adenosine A2B receptor turned out to be 19.43. Further, the IC50 on adenosine A2B receptor is 10 to 50 nM; on adenosine A3 receptor it was greater than 500 nM; on adenosine A2A receptor, 100 to 500 nM; against adenosine A1 receptor, greater than 500 nM.

Turning to `CC(=O)N[C@@H]1CCN(C(=O)c2nc(N[C@@H](C)c3cncc(F)c3)nc3cc(C)sc23)C1` [Example Z532, N—((R)-1-(2-(((S)-1-(5-Fluoropyridin-3-yl)ethyl)amino)-6-methylthieno[3,2-d]pyrimidine-4-carbonyl)pyrrolidin-3-yl)acetamide], on adenosine A2B receptor, the Ratio stood at 149.69. For the same compound, the IC50 on adenosine A2B receptor was 10 to 50 nM; on adenosine A3 receptor, greater than 500 nM; at adenosine A2A receptor it was greater than 500 nM; against adenosine A1 receptor it was greater than 500 nM.

As for `Cc1cc2nc(N[C@@H](C)c3cncc(F)c3)nc(C(=O)NCCC3CN(C)C3)c2s1` [Example Z535, (S)-2-((1-(5-Fluoropyridin-3-yl)ethyl)amino)-6-methyl-N-(2-(1-methylazetidin-3-yl)ethyl)thieno[3,2-d]pyrimidine-4-carboxamide], the Ratio on adenosine A2B receptor was 244.67. In addition, the IC50 was 10 to 50 nM at adenosine A2B receptor, greater than 500 nM on adenosine A3 receptor, greater than 500 nM on adenosine A2A receptor and greater than 500 nM against adenosine A1 receptor.

In the case of `Cc1cc2nc(N[C@@H](C)c3cncc(F)c3)nc(C(=O)N3CC(N4CCCC4)C3)c2s1` [Example Z540, (S)-(2-((1-(5-Fluoropyridin-3-yl)ethyl)amino)-6-methylthieno[3,2-d]pyrimidin-4-yl)(3-(pyrrolidin-1-yl)azetidin-1-yl)methanone], at adenosine A2B receptor, the Ratio is 33.20. In addition, the IC50 on adenosine A2B receptor is 10 to 50 nM; on adenosine A3 receptor it was greater than 500 nM; on adenosine A2A receptor it was 100 to 500 nM; against adenosine A1 receptor it was greater than 500 nM.

Regarding `Cc1cc2nc(N[C@@H](C)c3cncc(F)c3)nc(C(=O)N3CC(NC(=O)C4CCCO4)C3)c2s1` (stereo partly drawn) [Example Z541, N-(1-(2-(((S)-1-(5-Fluoropyridin-3-yl)ethyl)amino)-6-methylthieno[3,2-d]pyrimidine-4-carbonyl)azetidin-3-yl)tetrahydrofuran-2-carboxamide], on adenosine A2B receptor, the Ratio was found to be 1.64. The IC50 at adenosine A2B receptor is 10 to 50 nM; against adenosine A3 receptor, 100 to 500 nM; at adenosine A2A receptor, 10 to 50 nM; on adenosine A1 receptor it was 100 to 500 nM.

On to `Cc1cc2nc(N[C@@H](C)c3cncc(F)c3)nc(C(=O)N3CC(NC(=O)C4CCC4)C3)c2s1` [Example Z542, (S)—N-(1-(2-((1-(5-Fluoropyridin-3-yl)ethyl)amino)-6-methylthieno[3,2-d]pyrimidine-4-carbonyl)azetidin-3-yl)cyclobutanecarboxamide], for which, at adenosine A2B receptor, the Ratio was 1.45. The IC50 on adenosine A2B receptor is 10 to 50 nM; against adenosine A3 receptor it was 50 to 100 nM; on adenosine A2A receptor, 10 to 50 nM; against adenosine A1 receptor it was greater than 500 nM.

On to `CC(=O)NC1CN(C(=O)c2nc(N[C@@H](C)c3cncc(F)c3)nc3cc(C)sc23)C1` [Example Z543, (S)—N-(1-(2-((1-(5-Fluoropyridin-3-yl)ethyl)amino)-6-methylthieno[3,2-d]pyrimidine-4-carbonyl)azetidin-3-yl)acetamide], for which the Ratio on adenosine A2B receptor was determined as 18.71. For the same compound, the IC50 on adenosine A3 receptor is greater than 500 nM; at adenosine A2A receptor, 100 to 500 nM; at adenosine A1 receptor it was greater than 500 nM.

`Cc1cc2nc(N[C@@H](C)c3cncc(F)c3)nc(C(=O)N3CC(NC(=O)c4ccoc4)C3)c2s1` [Example Z546, (S)—N-(1-(2-((1-(5-Fluoropyridin-3-yl)ethyl)amino)-6-methylthieno[3,2-d]pyrimidine-4-carbonyl)azetidin-3-yl)furan-3-carboxamide]: the Ratio on adenosine A2B receptor came to 3.52. Further, the IC50 on adenosine A2B receptor is less than 10 nM; at adenosine A3 receptor, greater than 500 nM; on adenosine A2A receptor it was 10 to 50 nM; against adenosine A1 receptor, greater than 500 nM.

In the case of `C[C@H](Nc1nc(C(=O)N2CCC(C(=O)NOC(C)(C)C)C2)c2sccc2n1)c1cncc(F)c1` (stereo partly drawn) [Example Z549, N-(tert-Butoxy)-1-(2-(((S)-1-(5-fluoropyridin-3-yl)ethyl)amino)thieno[3,2-d]pyrimidine-4-carbonyl)pyrrolidine-3-carboxamide], on adenosine A2B receptor, the Ratio was determined as 0.63. Further, the IC50 at adenosine A2B receptor was 10 to 50 nM; on adenosine A3 receptor it was greater than 500 nM; at adenosine A2A receptor, less than 10 nM; against adenosine A1 receptor, greater than 500 nM.

With `C[C@H](Nc1nc(C(=O)N2CC(CN(C)C(=O)C(C)(C)C)C2)c2sccc2n1)c1cncc(F)c1` [Example Z551, (S)—N-((1-(2-((1-(5-Fluoropyridin-3-yl)ethyl)amino)thieno[3,2-d]pyrimidine-4-carbonyl)azetidin-3-yl)methyl)-N-methylpivalamide], the Ratio at adenosine A2B receptor stood at 1.68. The IC50 was 10 to 50 nM at adenosine A2B receptor, greater than 500 nM against adenosine A3 receptor, 10 to 50 nM on adenosine A2A receptor and greater than 500 nM against adenosine A1 receptor.

`Cc1cc2nc(N[C@@H](C)c3ccccn3)nc(C(=O)N3CC(C(=O)OC(C)(C)C)C3)c2s1` [Example Z552, tert-Butyl (S)-1-(6-methyl-2-((1-(pyridin-2-yl)ethyl)amino)thieno[3,2-d]pyrimidine-4-carbonyl)azetidine-3-carboxylate]: the Ratio at adenosine A2B receptor is 2.32. Further, the IC50 is 10 to 50 nM on adenosine A2B receptor, 100 to 500 nM on adenosine A3 receptor, 10 to 50 nM on adenosine A2A receptor and greater than 500 nM against adenosine A1 receptor.

For `COCC1CN(C(=O)c2nc(N[C@@H](C)c3ccccn3)nc3c(C)csc23)C1` [Example Z553, (S)-(3-(methoxymethyl)azetidin-1-yl)(7-methyl-2-((1-(pyridin-2-yl)ethyl)amino)thieno[3,2-d]pyrimidin-4-yl)methanone], on adenosine A2B receptor, the Ratio is recorded as 3.87. Further, the IC50 at adenosine A2B receptor is less than 10 nM; at adenosine A3 receptor, 100 to 500 nM; on adenosine A2A receptor it was 10 to 50 nM; on adenosine A1 receptor, greater than 500 nM.

Take `Cc1cc2nc(N[C@@H](C)c3cncc(F)c3)nc(C(=O)N3CC[C@H](CN)C3)c2s1` [Example Z554, ((R)-3-(Aminomethyl)pyrrolidin-1-yl)(2-(((S)-1-(5-fluoropyridin-3-yl)ethyl)amino)-6-methylthieno[3,2-d]pyrimidin-4-yl)methanone]: the Ratio at adenosine A2B receptor amounted to 547.59. Further, the IC50 was less than 10 nM on adenosine A2B receptor, greater than 500 nM at adenosine A3 receptor, greater than 500 nM at adenosine A2A receptor and greater than 500 nM against adenosine A1 receptor.

Turning to `C[C@H](Nc1nc(C(=O)N2CC(NC(=O)CC(C)(C)C)C2)c2sccc2n1)c1cncc(F)c1` [Example Z557, (S)—N-(1-(2-((1-(5-Fluoropyridin-3-yl)ethyl)amino)thieno[3,2-d]pyrimidine-4-carbonyl)azetidin-3-yl)-3,3-dimethylbutanamide], the Ratio at adenosine A2B receptor came out at 1.92. Further, the IC50 was 10 to 50 nM at adenosine A2B receptor, greater than 500 nM on adenosine A3 receptor, 10 to 50 nM at adenosine A2A receptor and greater than 500 nM on adenosine A1 receptor.

As to `CC(C)C(=O)NC1CN(C(=O)c2nc(N[C@@H](C)c3cncc(F)c3)nc3ccsc23)C1` [Example Z558, (S)—N-(1-(2-((1-(5-Fluoropyridin-3-yl)ethyl)amino)thieno[3,2-d]pyrimidine-4-carbonyl)azetidin-3-yl)isobutyramide], the Ratio on adenosine A2B receptor is 3.43. In addition, the IC50 was less than 10 nM on adenosine A2B receptor, greater than 500 nM at adenosine A3 receptor, 10 to 50 nM on adenosine A2A receptor and greater than 500 nM against adenosine A1 receptor.

With `Cc1csc2c(C(=O)N3CC(NC(=O)C(C)(C)C)C3)nc(N[C@@H](C)c3ccccn3)nc12` [Example Z559, (S)—N-(1-(7-Methyl-2-((1-(pyridin-2-yl)ethyl)amino)thieno[3,2-d]pyrimidine-4-carbonyl)azetidin-3-yl)pivalamide], the Ratio on adenosine A2B receptor is on record as 1.93. Also, the IC50 on adenosine A2B receptor was 10 to 50 nM; against adenosine A3 receptor it was 100 to 500 nM; at adenosine A2A receptor it was 10 to 50 nM; on adenosine A1 receptor, greater than 500 nM.

As to `CN[C@@H]1CCN(C(=O)c2nc(N[C@@H](C)c3cncc(F)c3)nc3cc(C)sc23)C1` [Example Z560, (2-(((S)-1-(5-Fluoropyridin-3-yl)ethyl)amino)-6-methylthieno[3,2-d]pyrimidin-4-yl)((R)-3-(methylamino)pyrrolidin-1-yl)methanone], the Ratio at adenosine A2B receptor stood at 59.47. Also, the IC50 was 50 to 100 nM on adenosine A2B receptor, greater than 500 nM on adenosine A3 receptor, greater than 500 nM at adenosine A2A receptor and greater than 500 nM against adenosine A1 receptor.

As to `CN[C@H]1CCN(C(=O)c2nc(N[C@@H](C)c3cncc(F)c3)nc3cc(C)sc23)C1` [Example Z561, (2-(((S)-1-(5-Fluoropyridin-3-yl)ethyl)amino)-6-methylthieno[3,2-d]pyrimidin-4-yl)((S)-3-(methylamino)pyrrolidin-1-yl)methanone], the Ratio at adenosine A2B receptor amounted to 140.19. For the same compound, the IC50 at adenosine A2B receptor is 50 to 100 nM; at adenosine A3 receptor, greater than 500 nM; at adenosine A2A receptor, greater than 500 nM; against adenosine A1 receptor, greater than 500 nM.

For the compound `Cc1cc2nc(N[C@@H](C)c3cncc(F)c3)nc(C(=O)NCCC3CCN(C)CC3)c2s1` [Example Z562, (S)-2-((1-(5-Fluoropyridin-3-yl)ethyl)amino)-6-methyl-N-(2-(1-methylpiperidin-4-yl)ethyl)thieno[3,2-d]pyrimidine-4-carboxamide], the Ratio at adenosine A2B receptor turned out to be 127.97. Also, the IC50 on adenosine A2B receptor is 10 to 50 nM; at adenosine A3 receptor it was greater than 500 nM; on adenosine A2A receptor it was greater than 500 nM; against adenosine A1 receptor it was greater than 500 nM.

What is called IC50 is the concentration that inhibits the measured activity by half.
